In article PMC3134853, “In Vitro and In Vivo Study of Poly(ethylene glycol) Conjugated Ibuprofen to Extend the Duration of Action” (Scientia Pharmaceutica, 2011):
Converted amounts (≈) assume the structure as drawn. Where two headings read alike, the source gives them in different places.

How the values were obtained:
[1] = test system: acetic acid induced writhing in mice; experiment: Writhing induced by acetic acid (analgesic activity); format: in vivo, Swiss albino mice; conditions: oral, 3 h prior to acetic acid, Ibuprofen 20 mg/kg or molecular equivalent dose of conjugate
Method: Analgesic activity was carried out by using acetic acid induced writhing method in Swiss albino mice (25–30 g) of either sex. A 1% v/v solution of acetic acid was used to induce writhing. Test compounds were administered orally 3 h prior to acetic acid injection. Number of writhing for 10 min in control and test compounds were counted and compared. […] Acetic acid was administered intraperitoneally 1 ml/100 g body weight of the animal. Analgesic activity was measured as percent decrease in writhing in comparison to control. The percent Inhibition was calculated using the following equation: % Inhibition = 100 − number of writhings in test/number of writhings in control×100
Analgesic activity was carried out by using acetic acid induced writhing method in Swiss albino mice (25–30 g) of either sex. A 1% v/v solution of acetic acid was used to induce writhing. Test compounds were administered orally 3 h prior to acetic acid injection.

[2] = test system: carrageenan-induced paw edema in rats; experiment: Carrageenan-induced paw edema (anti-inflammatory activity); format: in vivo; conditions: Wistar rats, oral, mean ± SEM
Method: All the animals were obtained from the animal house of the Department of Pharmacology, […] College of Pharmacy, Mandsaur and its animal facility is approved by […]. No. 918/ac/05/CPCSEA). The experimental protocols for the same have been approved by Institutional Animal Ethics Committee. The analgesic activity was carried out on Swiss albino mice by the Siegmund et al. method; anti-inflammatory activity of the compounds was carried out on Wistar rats by the Winter et al. method. The anti-inflammatory activity was evaluated using carrageenan-induced paw edema on rat method. To evaluate the anti-inflammatory activity of the conjugates 4 groups (n = 6) of Wistar rats (150-200 g) were examined. […] A stock solution of 0.2, 0.52 and 2.14 mg ml^-1 was prepared as a homogeneous suspension in aqueous solution of sodium CMC (0.5% w/v) and each animal received 2.0- 2.2 ml of the respective drugs orally. Thirty minutes after administration of drugs, each rat received a subplanter injection of 0.1 ml of 1% carrageenan solution in its left hind paw. The swelling volume of the paw was measured before (time 0) and at 0.5, 1, 2, 3, 4, 24 h after the carrageenan injection. The measurement of the hind paw volume was carried out using an Ugo Basile Plethysmometer before any treatment (Vo) and in any interval (Vt) after the administration of the drugs. The percentage increase in the paw volume was calculated from the normal paw volume. The percentage of swelling inhibition was calculated using: Inhibition (%) = (Vt - Vo)control - (Vt - Vo)treated/(Vt - Vo)×100 (Vt and Vo relates to the average volume in the hind paw of the rats (n = 6) before any treatment and after anti-inflammatory agent treatment, respectively.

[3] = oral administration; cited from earlier work
[4] = Determination of drug solubility (distilled water and phosphate buffer pH 7.4); format: physicochemical; conditions: UV 222 nm
Method: This suspension was stirred at room temperature for 24 hours with a Rota spin test tube Roter. After that the containers (test tubes) were left overnight for saturation. Then these saturated solutions were centrifuged at 10000 rpm the help of macro centrifuge and the supernatant was filtered via Whatman filter paper. The concentration of Ibuprofen was determined spectrophotometrically at 222 nm.

[5] = cited from earlier work

For `CC(C)Cc1ccc(C(C)C(=O)O)cc1` (centres unmarked) [Ibuprofen, 2-(4-iso-butylphenyl)-propanoic acid], which “Percent inhibition (decrease) in writhing number versus control” value [1] is on record?
Its value is 59.61%.

And the Paw edema volume ([2]; 1 hr, the values are: paw edema volume)?
Its Paw edema volume is 0.33 ± 0.013 mL.

What about the Paw edema volume ([2]; 2 hr, the values are: paw edema volume) of the same molecule?
The Paw edema volume was 0.48 ± 0.017 mL.

What about the Paw edema volume ([2]; 3 hr, the values are: paw edema volume) of the same molecule?
The Paw edema volume was 0.38 ± 0.013 mL.

And the Paw edema volume ([2]; 4 hr, the values are: paw edema volume)?
The Paw edema volume was 0.24 ± 0.009 mL.

And the Paw edema volume ([2]; 8 hr, the values are: paw edema volume)?
Its Paw edema volume is 0.15 ± 0.01 mL.

What about the Paw edema volume ([2]; 24 hr) of the same molecule?
Its Paw edema volume is 0.03 ± 0.013^ns.

And the “Time to reach maximal plasma concentration” value [3]?
Its value is at most 2 h.

What about the solubility at 24 h ([4]; distilled water, room temperature, read-out: Solubility in distilled water) of the same molecule?
Its solubility at 24 h is 10.6 µg/mL (≈ 51.2 µM).

What about the solubility at 24 h ([4]; phosphate buffer pH 7.4, room temperature, read-out: Solubility in phosphate buffer (pH 7.4)) of the same molecule?
Its solubility at 24 h is 25.2 µg/mL (≈ 122 µM).

What about the “Solubility in water (in words)” value [5] of the same molecule?
Its value is “poorly soluble in water”.
